Here are results for one molecule from patent US20240002376A1, “COMPOSITIONS AND METHODS FOR G-PROTEIN-COUPLED RECEPTOR 44 DETECTION” (City of Hope, priority 2020, published 2024).

Common to all, as to assay type: in vivo
The test system of one data set is GPR44+1.1B4 cells. The data set is described as follows: Biodistribution in NOD/SCID mice implanted with human beta-like 1.1B4 cells. On the procedure:
(§1) Preliminary studies confirmed that the human beta-like 1.1B4 cells express GPR44. However, it was not clear if the radiotracer would localize to these cells in living animals. We performed a biodistribution study in NOD/SCID mice post 3 weeks following implantation of 1.1B4 cells. The blocking agent was cold Ab-1. At 30 minutes post-injection, the mice with/without blocking agent were euthanized and organs were collected. […] For mice with transplanted study, 500 IEQ human islets were transplanted into NOD/SCID mice kidney capsule. We also performed the biodistribution study in the mice with human islets (FIG. 9). […] Ab-1. Further, [^18F]

A short description of data set [1]: Biodistribution of 18F GPR44 radioligand in healthy NOD/SCID mice. The protocol:
Bio-distribution analysis over time of a unique ^18F GPR44 radioligand in healthy NOD/SCID mice. The biodistribution of [^18F] Ab-1 was investigated in health NOD/SCID mice. The mice were administered doses of the radiotracer i.v. through the tail vein under general anesthesia. At 30, 60, and 90 minutes post-injection, mice were euthanized. The blood, lung, heart, liver, spleen, stomach, small and large intestines, muscle, kidney, pancreas and bone were collected, weighed, and radioactivity counted. […] We also injected cold unlabeled Ab-1, as a blocking agent, and collected the organs at 30 minutes post-injection. Organ uptake varied little from results obtained in mice given the radiotracer.

Another data set deals with human islets. The experiment in a line: Biodistribution in NOD/SCID mice with human islets transplanted into kidney capsule. As to conditions: 500 IEQ human islets in kidney capsule. On the procedure: as §1

SMILES strings stand for the structures. “Also recorded” adds a separate entry of the source.

Turning to `CN(C1CCc2c(c3ccccc3n2CC(=O)O)C1)S(=O)(=O)c1ccc([18F])cc1` (centres unmarked) [[^18F] Ab-1], in the data set with GPR44+1.1B4 cells (30 minutes post-injection), the “effect of blocking agent cold Ab-1 on uptake in 1.1B4 cells” value was “decreased by cold Ab-1” and the “uptake in other organs before or after administration of cold Ab-1” value is listed as “not different”. In the data set with GPR44+1.1B4 cells (30 minutes post-injection, 3 weeks after implantation), the “uptake in implanted 1.1B4 cells” value is “highest uptake; also recorded: accumulated”. In addition, the “binding to GPR44+1.1B4 cells” value with GPR44+1.1B4 cells (in vivo, blocking with cold Ab-1) is reported as “specifically binds”. Besides, the “specific binding in murine tissues” value in data set [1] (blocking with cold Ab-1) was “no specific binding”. Besides, the “uptake in the murine pancreas” value in data set [1] (i.v. tail vein, 30, 60 and 90 minutes post-injection) is given as “minimal uptake”. In addition, the “uptake in the liver” value in data set [1] (i.v. tail vein, 30, 60 and 90 minutes post-injection, radioactivity counted) is recorded as “Prominent uptake”. Besides, the “uptake in the kidneys” value in data set [1] (i.v. tail vein, 30, 60 and 90 minutes post-injection, relative to liver) was “much less so”. Further, the “organ uptake with cold unlabeled Ab-1 as blocking agent versus radiotracer alone” value in data set [1] (organs collected 30 minutes post-injection) is given as “varied little”. In the data set on human islets, the “specific binding to human islets” value is “high specific binding” and the “uptake in human islets” value is “significant uptake; also recorded: accumulated”.
